Several values for one entry are separate records, joined by “and”; a condition that tells them apart may be missing. Equal values may be shown once. Inconclusive results and toxic doses are left out.
Test system: CD2F1 mice, intracerebral P388 leukemia, median survival T/C%
Test: NCI In Vivo Anticancer Drug Screen. Data for tumor model P388 Leukemia (intracerebral) in CD2F1 (CDF1) mice
Conditions: endpoint: median survival time, higher = longer survival
Protocol: The antitumor activity of compounds was measured in mice bearing transplantable tumors. Survival or tumor size were measured and the results are expressed as the measurement made in the treated group (T) divided by the measurement made in the vehicle treated control group (C). The tumor model used in this assay is P388 Leukemia (intracerebral) in CD2F1 (CDF1) mice

[1] = dose: 8.0 mg/kg/injection, schedule: Q01DX009 (ip), vehicle: saline
[2] = dose: 12.0 mg/kg/injection, schedule: Q01DX005 (ip), vehicle: saline
[3] = dose: 50.0 mg/kg/injection, schedule: Q01DX009 (ip), vehicle: saline
[4] = dose: 100.0 mg/kg/injection, schedule: Q01DX009 (ip), vehicle: saline

`COc1cccc2c1C(=O)c1c(O)c3c(c(O)c1C2=O)CC(O)(C(=O)CO)CC3OC1CC(N)C(O)C(C)O1` (stereo not given) was tested, and the T/C (dose: 0.78 mg/kg/injection, schedule: Q04DX003 (ip), vehicle: saline) was 107 % of control, the T/C (dose: 1.56 mg/kg/injection, schedule: Q04DX003 (ip), vehicle: saline) was 98 % of control and the T/C (dose: 3.12 mg/kg/injection, schedule: Q04DX003 (ip), vehicle: saline) was 106 % of control. The T/C (dose: 3.75 mg/kg/injection, schedule: Q04DX003 (ip), vehicle: clinical formulation) was 100 % of control, the T/C (dose: 3.75 mg/kg/injection, schedule: Q04DX003 (iv), vehicle: clinical formulation) was 100 % of control and the T/C (dose: 6.25 mg/kg/injection, schedule: Q04DX003 (ip), vehicle: saline) was 97 % of control. For the same compound, the T/C (dose: 7.5 mg/kg/injection, schedule: Q04DX003 (ip), vehicle: clinical formulation) was 103 % of control, the T/C (dose: 7.5 mg/kg/injection, schedule: Q04DX003 (iv), vehicle: clinical formulation) was 99 % of control and the T/C (dose: 12.5 mg/kg/injection, schedule: Q04DX003 (ip), vehicle: saline) was 103 % of control. The T/C (dose: 15.0 mg/kg/injection, schedule: Q04DX003 (ip), vehicle: clinical formulation) was 100 % of control, the T/C (dose: 15.0 mg/kg/injection, schedule: Q04DX003 (iv), vehicle: clinical formulation) was 106 % of control and the T/C (dose: 25.0 mg/kg/injection, schedule: Q04DX003 (ip), vehicle: saline) was 91 % of control. The T/C (dose: 30.0 mg/kg/injection, schedule: Q04DX003 (iv), vehicle: clinical formulation) was 90 % of control.
`CC1(C)N=C(N)N=C(N)N1c1ccc(CCCCc2cccc(S(=O)(=O)F)c2)c(Cl)c1` was tested, and the T/C [1] was 94 % of control, the T/C (dose: 12.0 mg/kg/injection, schedule: Q01DX009 (ip), vehicle: saline) was 116 % of control and the T/C (dose: 18.0 mg/kg/injection, schedule: Q01DX009 (ip), vehicle: saline) was 105 % of control. For the same compound, the T/C (dose: 27.0 mg/kg/injection, schedule: Q01DX009 (ip), vehicle: saline) was 88 % of control.
With `CCCCCc1cc(O)c2c(c1)OC(C)(C)[C@@H]1CCC(C)=C[C@@H]21` the T/C (dose: 2.75 mg/kg/injection, schedule: Q01DX005 (iv), vehicle: other) was 105 % of control, the T/C (dose: 5.5 mg/kg/injection, schedule: Q01DX005 (iv), vehicle: other) was 101 % of control and the T/C (dose: 11.0 mg/kg/injection, schedule: Q01DX005 (iv), vehicle: other) was 103 % of control. For the same compound, the T/C (dose: 22.0 mg/kg/injection, schedule: Q01DX005 (iv), vehicle: other) was 104 % of control and the T/C (dose: 44.0 mg/kg/injection, schedule: Q01DX005 (iv), vehicle: other) was 101 % of control.
For `CC[n+]1c(-c2ccccc2)c2cc(N)ccc2c2ccc(N)cc21`, the T/C (dose: 6.0 mg/kg/injection, schedule: Q01DX005 (ip), vehicle: saline) was 102 % of control and the T/C [2] was 99 % of control and 106 % of control.
`CCCCCCCCCCCCCC(=O)OC12CC(C)C3(O)C(C=C(CO)C(O)C4(O)C(=O)C(C)=CC43)C1C2(C)C` (stereo not given) was tested, and the T/C (dose: 62.5 micrograms/kg/injection, schedule: Q01DX009 (ip), vehicle: acetone) was 103 % of control, the T/C (dose: 125.0 micrograms/kg/injection, schedule: Q01DX009 (ip), vehicle: acetone) was 98 % of control and the T/C (dose: 250.0 micrograms/kg/injection, schedule: Q01DX009 (ip), vehicle: acetone) was 88 % of control. The T/C (dose: 500.0 micrograms/kg/injection, schedule: Q01DX009 (ip), vehicle: acetone) was 94 % of control.
For `N[C@H](C(=O)O)[C@@H]1CC(Cl)=NO1`, the T/C (dose: 4.0 mg/kg/injection, schedule: Q01DX009 (ip), vehicle: saline) was 168 % of control and the T/C [1] was 114 % of control.
`NC(=S)N/N=C/c1ccc(O)cn1` was tested, and the T/C [2] was 99 % of control and 100 % of control, the T/C (dose: 24.0 mg/kg/injection, schedule: Q01DX005 (ip), vehicle: saline) was 96 % of control and 97 % of control and the T/C (dose: 48.0 mg/kg/injection, schedule: Q01DX005 (ip), vehicle: saline) was 101 % of control and 106 % of control. For the same compound, the T/C (dose: 96.0 mg/kg/injection, schedule: Q01DX005 (ip), vehicle: saline) was 93 % of control and 103 % of control.
In the case of `CCN(CC)c1ccc2cc3ccc(=[N+](CC)CC)cc-3oc2c1`, the T/C (dose: 4.0 mg/kg/injection, schedule: Q01DX005 (ip), vehicle: suspension in saline) was 102 % of control and the T/C (dose: 8.0 mg/kg/injection, schedule: Q01DX005 (ip), vehicle: suspension in saline) was 103 % of control.
In the case of `CC1(C)N=C(N)N=C(N)N1c1ccc(CCC(=O)Nc2ccc(S(=O)(=O)F)cc2)cc1`, the T/C [3] was 111 % of control and the T/C [4] was 100 % of control.
With `COc1cc(C[C@H]2c3cc(OC)c(OC)cc3CCN2C)c(Oc2cc3c(cc2OC)-c2c(OC)c(OC)cc4c2[C@H](C3)N(C)CC4)cc1OC` the T/C (dose: 50.0 mg/kg/injection, schedule: Q01DX005 (ip), vehicle: Klucel (hydroxypropylcellulose) (HPC)) was 102 % of control and 106 % of control and 107 % of control and the T/C (dose: 200.0 mg/kg/injection, schedule: Q01DX005 (ip), vehicle: Klucel (hydroxypropylcellulose) (HPC)) was 96 % of control and 101 % of control and 104 % of control.
In the case of `Nc1ncn(C2OC(CO)C(O)C2O)c(=O)n1` (stereo not given), the T/C (dose: 12.5 mg/kg/injection, schedule: Q01DX009 (ip), vehicle: saline) was 219 % of control, the T/C (dose: 25.0 mg/kg/injection, schedule: Q01DX009 (ip), vehicle: saline) was 230 % of control and the T/C [3] was 290 % of control. The T/C [4] was 303 % of control and the T/C (dose: 200.0 mg/kg/injection, schedule: Q01DX009 (ip), vehicle: saline) was 303 % of control.

From PubChem BioAssay AID334 (DTP/NCI, 2004)
